Source: article doi:10.1101/2025.02.17.638454, “Synergistic RAS-MAPK and AKT Activation in MYC-Driven Tumors via Adjacent PVT1 Rearrangements” (bioRxiv, 2025)
No end group written: not given here.

Columns and labels:
recombinant KRAS protein = target: T1, recombinant KRAS protein (Homo sapiens, UniProt P01116); assay: Isothermal titration calorimetry of HNB into recombinant KRAS; format: binding; details: ITC, pH 8.0, 25°C, N 1 (fixed)
T1 construct: purchased Abcam ab156968
Protocol: Isothermal titration calorimetry (ITC) measures the change in temperature when two or more biomolecules bind to each other in a solution. The assay provides the binding affinity of ligands to proteins and the entropy or enthalpy of the reaction. Recombinant KRAS protein (#ab156968, Abcam) was dialyzed into the ITC assay buffer (20mM Tris pH 8.0, 100mM NaCl, 5mM Beta-mercaptoethanol) and concentrated to about 100 μM. During ITC titration twenty 6 μl injections (with intervals of 150 seconds) of 500μM HNB were made into the ITC cell containing 93 μM KRAS. Titration of 500μM HNB into the ITC assay buffer under the same conditions was used as the baseline control. ITC experiments were performed using Affinity ITC instrument (TA Instruments) at 25°C. The data was fitted and analyzed using NanoAnalyze software provided by TA Instruments. […]
bioRxiv preprint doi: https://doi.org/10.1101/2025.02.17.638454; this version posted February 22, 2025. The copyright holder for this preprint (which was not certified by peer review) is the author/funder, who has granted bioRxiv a license to display the preprint in perpetuity. It is made available under aCC-BY 4.0 International license. […]

[1] = tested on: phospho-MEK1/2, phospho-ERK1/2, phospho-p90RSK (RAS/MAPK pathway); assay: Western blot of RAS/MAPK effectors in D458; format: cell-based
Protocol: (§1) For whole-cell lysate, the cell pellet was resuspended in RIPA buffer (Cell Signaling Technologies, Danvers, MA) supplemented with a protease inhibitor cocktail (Cell Signaling Technologies) and incubated on ice for 20 minutes. The lysate was then centrifuged at 14,000 revolutions/minute for 10 minutes at 4°C, and the supernatant was harvested. Protein concentration was quantified by BCA Protein Assay Kit (Thermo Fisher Scientific) as per kit protocol. Next, 20 μg of whole-cell lysate was electrophoresed on a 4%–20% gradient polyacrylamide gel with SDS (Bio-Rad, Hercules, CA) and electroblotted onto polyvinylidene difluoride membranes (Bio-Rad). Membranes were blocked in Tris-buffered saline with 5% nonfat milk and 0.1% Tween and probed with antibodies. Bound proteins were detected with horseradish-peroxidase–conjugated secondary antibodies (Cell Signaling Technologies) and SuperSignal West Femto (Thermo Fisher Scientific). […]
(§2) The HNB ORF and eGFP (control) were cloned in an inducible lentivirus expression, TRE-gateway plasmid (pLIX_403, Addgene, #41395). […] The protein lysates were collected and quantified using the previously described protocol. […] Bound proteins were detected with horseradish-peroxidase–conjugated secondary antibodies (Cell Signaling Technologies) and SuperSignal West Femto (Thermo Fisher Scientific). […]

[2] = tested on: phospho-MEK1/2, phospho-ERK1/2, phospho-p90RSK (RAS/MAPK pathway); assay: Western blot of RAS/MAPK effectors in NCI-H1792; format: cell-based; details: NCI-H1792 (mutant KRAS^G12C), doxycycline-induced HNB, 1 μg/mL Dox 48 h
Protocol: as §1, §2

T1 sequence (P01116 1-188 isoform P01116-2): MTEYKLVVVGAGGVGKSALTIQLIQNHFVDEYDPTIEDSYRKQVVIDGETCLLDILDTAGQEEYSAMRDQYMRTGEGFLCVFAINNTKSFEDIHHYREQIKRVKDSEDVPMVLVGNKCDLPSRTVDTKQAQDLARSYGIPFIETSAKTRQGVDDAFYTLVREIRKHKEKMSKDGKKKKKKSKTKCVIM

MKTQLGAVKGFLHV [HNB] was tested. Which “-TDS” value (recombinant KRAS protein) did it give?
Its value is -0.7 ± 1.5 kcal/mol.

And the DH (recombinant KRAS protein)?
Its DH is -4 ± 2 kcal/mol.

And the “phosphorylation of MEK1/2, ERK1/2 and p90RSK” value ([1]; D458 (wild type KRAS), doxycycline-induced HNB, 1 μg/mL Dox 48 h, n=3, unpaired t-test)?
Its value is “significantly dampened the phosphorylation”.

And the ERK1/2 phosphorylation ([1]; D458, ectopic (doxycycline-inducible) expression, HNB vs mutant, Figure 5L)?
Its ERK1/2 phosphorylation is “significantly diminished ERK1/2 phosphorylation”.

What about the “phosphorylation of MEK1/2, ERK1/2 and p90RSK” value [2] of the same sequence?
The value was “significantly dampened the phosphorylation”.
